# In patent US5612476A, “Anti-endotoxin compounds” (priority 1995, dated 1997):
# “And” between values parts separate entries of the source, which are not always exact repeats. Equal values may be shown once.
# Columns and labels:
# [1] = tested on: LPS-induced TNF production; parameters: species or system C57BL/6 mice; settings: mouse, iv
# guinea pig macrophages = assay: cells; type: cell-based, Hartley-White guinea pig; settings: for inhibition of LPS-induced TNF production: guinea pig macrophages, LPS 10 ng/ml, in words
# human monocytes = assay: In vitro inhibition of LPS-induced TNF production in human monocytes (ELISA); type: cell-based; settings: Monocyte, E. coli 0111:B4 LPS 10 ng/ml, 3 h, read-out: ED50 for inhibition of LPS-induced production of TNF
# Protocol: Both bacterial LPS and bacterial lipid A elicit production of tumor necrosis factor (TNF) and IL-1β in cultured human monocytes (J. Immunol. 139:429, 1987).
# Monocytes were isolated from human blood by Percoll density gradient centrifugation, plated at approximately 1×10^6 cells/well on a 48-well plate in RPMI 1640 medium (GIBCO, Grand Island, N.Y.) containing 10% human serum (Sigma Chemical Co., St. Louis, Mo.) and incubated for two to three hours. Bacterial LPS (i.e., from E. coli 0111:B4; Sigma Chemicals, St. Louis, Mo.) at 10 ng/ml or lipid A (Daiichi Chemicals, Tokyo, Japan) at 1.0 ng/ml in RPMI 1640 medium were combined with 0.45 ml of RPMI 1640 medium containing 1% human serum and added to the cultured monocytes. In experiments involving a lipid A analog, the analog was added immediately before addition of LPS or lipid A in varying concentrations (e.g., between 0 and 100 μM in a 50 μl aliquot). Following a three-hour incubation period, a 0.1 ml aliquot of the culture supernatant was assayed for the presence of TNF and IL-1β. TNF and IL-1β were assayed using the ELISA assay of R & D Systems (Minneapolis, Minn.) and the instructions of the manufacturer, however, any other standard ELISA kits may be utilized, for example, the kit available from Genzyme, Cambridge, Mass. Experiments were performed in triplicate.
# mouse macrophages = assay: cells; type: cell-based, C57BL/6 mouse; settings: for inhibition of LPS-induced TNF production: mouse macrophages, LPS 10 ng/ml, in words
# [2] = tested on: LPS-induced TNF production; assay: In vivo inhibition of LPS-induced TNF production in guinea pigs; settings: optimum ED50's
# HIV LTR = assay: Suppression of LPS-stimulated HIV LTR activation in stably transfected U938 cell line (HIV-1 LTR-CAT); settings: Human immunodeficiency virus 1, 24 h, read-out: IC50 for suppression of LPS-stimulated HIV LTR activation
# Protocol: Experiments were carried out using one such stably-transfected cell line, i.e., the U938 cell line of Latham et al. (Cell. Immunol. 129:513, 1990). Cells were cultured as described in Latham et al. (1990, supra), and 10^6 cells were treated with a lipid A analog (at a concentration of between 0.0 and 1.0 μM). Thirty minutes after addition of the analog, cells were treated with phorbol myristate acetate (at a concentration of 0.33 ng/ml; described above) and E. coli 0111:B4 LPS (at a concentration of 33 ng/ml; described above). Cells were cultured for an additional 24 hours, harvested, and assayed for CAT activity as described above.
SMILES,inhibition of TNF production in vivo [1],inhibition of LPS-induced TNF production (guinea pig macrophages),inhibition of LPS-induced TNF production (mouse macrophages),also measured
CCCCCC/C=C\CCCC(=O)O[C@H](CCCCCCC)CC(=O)O[C@@H]1[C@@H](NC(=O)CC(=O)CCCCCCCCCCC)[C@H](OC[C@H]2O[C@H](OP(=O)(O)O)[C@H](NC(=O)C[C@H](O)CCCCCCCCCCC)[C@@H](OC(=O)C[C@H](O)CCCCCCC)[C@@H]2O)O[C@H](CO)[C@H]1OP(=O)(O)O [Analog B218-32],inhibited TNF production,–,–,–
CCCCCC/C=C\CCCC(=O)O[C@H](CCCCCCC)CC(=O)O[C@@H]1[C@@H](NC(=O)CC(=O)CCCCCCCCCCC)[C@H](OC[C@H]2O[C@H](OP(=O)(O)O)[C@H](NC(=O)/C=C/CCCCCCCCCCC)[C@@H](OC(=O)C[C@H](O)CCCCCCC)[C@@H]2O)O[C@H](CO)[C@H]1OP(=O)(O)O [Analog B313-32],inhibited TNF production,–,–,–
CCCCCC/C=C\CCNC(=O)O[C@H](CCCCCCC)CC(=O)O[C@@H]1[C@@H](NC(=O)CC(=O)CCCCCCCCCCC)[C@H](OC[C@H]2O[C@H](OP(=O)(O)O)[C@H](NC(=O)CC(=O)CCCCCCCCCCC)[C@@H](OC(=O)C[C@H](O)CCCCCCC)[C@@H]2O)O[C@H](CO)[C@H]1OP(=O)(O)O [Analog B379-32],inhibited TNF production,–,–,–
CCCCCC/C=C\CCCCO[C@H](CCCCCCC)CC(=O)O[C@@H]1[C@@H](NC(=O)CC(=O)CCCCCCCCCCC)[C@H](OC[C@H]2O[C@H](OP(=O)(O)O)[C@H](NC(=O)CC(=O)CCCCCCCCCCC)[C@@H](OC(=O)C[C@H](O)CCCCCCC)[C@@H]2O)O[C@H](CO)[C@H]1OP(=O)(O)O [Analog B294-32],inhibited TNF production,–,–,–
CCCCCC/C=C\CCCC(=O)O[C@H](CCCCCCC)CCO[C@@H]1[C@@H](NC(=O)CC(=O)CCCCCCCCCCC)[C@H](OC[C@H]2O[C@H](OP(=O)(O)O)[C@H](NC(=O)CC(=O)CCCCCCCCCCC)[C@@H](OCC[C@H](O)CCCCCCC)[C@@H]2O)O[C@H](COC)[C@H]1OP(=O)(O)O [Analog B531-35],–,–,–,"ED50 for inhibition of TNF production in vivo [1]: 16.2 μg/mouse; IC50 (guinea pig macrophages; Cavia porcellus, Macrophage, 3 h, read-out: ED50 for inhibition of LPS-induced TNF production): 0.66 nM; IC50 (human monocytes): ~0.02 nM; IC50 (mouse macrophages; Mus musculus, Macrophage, 3 h, read-out: ED50 for inhibition of LPS-induced TNF production): 2.26 nM"
CCCCCC/C=C\CCCC(=O)O[C@H](CCCCCCC)CCO[C@@H]1[C@@H](NC(=O)CC(=O)CCCCCCCCCCC)[C@H](OC[C@H]2O[C@H](OP(=O)(O)O)[C@H](NC(=O)CC(=O)CCCCCCCCCCC)[C@@H](OCC[C@H](O)CCCCCCC)[C@@H]2OC(C)=O)O[C@H](COC)[C@H]1OP(=O)(O)O [Analog B718-35],–,inhibited LPS-induced TNF production,inhibited LPS-induced TNF production,–
CCCCCC/C=C\CCCC(=O)O[C@H](CCCCCCC)CC(=O)O[C@@H]1[C@@H](NC(=O)CC(=O)CCCCCCCCCCC)[C@H](OC[C@H]2O[C@H](OP(=O)(O)O)[C@H](NC(=O)CC(=O)CCCCCCCCCCC)[C@@H](OC(=O)C[C@H](O)CCCCCCC)[C@@H]2O)O[C@H](CO)[C@H]1OP(=O)(O)O [Analog B214-32],inhibited TNF production,inhibited LPS-induced TNF production,inhibited LPS-induced TNF production,optimum ED50 for inhibition of LPS-induced TNF production in vivo [2]: 7.5 μg/guinea pig and 5 μg/guinea pig
CCCCCC/C=C\CCCC(=O)O[C@H](CCCCCCC)CC(=O)O[C@@H]1[C@@H](NC(=O)CS(=O)(=O)CCCCCCCCCCC)[C@H](OC[C@H]2O[C@H](OP(=O)(O)O)[C@H](NC(=O)CS(=O)(=O)CCCCCCCCCCC)[C@@H](OC(=O)C[C@H](O)CCCCCCC)[C@@H]2O)O[C@H](CO)[C@H]1OP(=O)(O)O [Analog B425-32],inhibited TNF production,–,–,–
CCCCCC/C=C\CCCC(=O)O[C@H](CCCCCCC)CC(=O)O[C@@H]1[C@@H](NC(=O)CC(=O)CCCCCCCCCCC)[C@H](OC[C@H]2O[C@H](OP(=O)(O)O)[C@H](NC(=O)CC(=O)CCCCCCCCCCC)[C@@H](OC(=O)C[C@H](O)CCCCCCC)[C@@H]2O)O[C@H](CO)[C@H]1OP(=O)(O)O [Analog B214-31],inhibited TNF production,–,–,–
CCCCCC/C=C\CCCC(=O)O[C@H](CCCCCCC)CCO[C@@H]1[C@@H](NC(=O)C[S+]([O-])CCCCCCCCCCC)[C@H](OC[C@H]2O[C@H](OP(=O)(O)O)[C@H](NC(=O)C[S+]([O-])CCCCCCCCCCC)[C@@H](OCC[C@H](O)CCCCCCC)[C@@H]2O)O[C@H](CO)[C@H]1OP(=O)(O)O (stereo partly shown) [Analog B459-32],–,inhibited LPS-induced TNF production,inhibited LPS-induced TNF production,–
CCCCCC/C=C\CCCC(=O)O[C@H](CCCCCCC)CC(=O)O[C@@H]1[C@@H](NC(=O)CC(=O)CCCCCCCCCCC)[C@@H](OC[C@H]2O[C@H](OP(=O)(O)O)[C@H](NC(=O)CC(=O)CCCCCCCCCCC)[C@@H](OC(=O)C[C@H](O)CCCCCCC)[C@@H]2O)O[C@H](CO)[C@H]1OP(=O)(O)O [Analog B426-32],inhibited TNF production,–,–,–
CCCCCCC/C=C/C(=O)O[C@@H]1[C@@H](NC(=O)CC(=O)CCCCCCCCCCC)[C@H](OC[C@H]2O[C@H](OP(=O)(O)O)[C@H](NC(=O)CC(=O)CCCCCCCCCCC)[C@@H](OC(=O)C[C@H](O)CCCCCCC)[C@@H]2O)O[C@H](CO)[C@H]1OP(=O)(O)O [Analog B400-32],inhibited TNF production,–,–,IC50 (HIV LTR): 15 to 260 nM
CCCCCC/C=C\CCCC(=O)O[C@H](CCCCCCCC)CCO[C@@H]1[C@@H](NC(=O)CC(=O)CCCCCCCCCCC)[C@H](OC[C@H]2O[C@H](OP(=O)(O)O)[C@H](NC(=O)CC(=O)CCCCCCCCCCC)[C@@H](OCC[C@H](O)CCCCCCCC)[C@@H]2O)O[C@H](COC)[C@H]1OP(=O)(O)O [Analog B464-32],–,inhibited LPS-induced TNF production,inhibited LPS-induced TNF production,–
CCCCCC/C=C\CCCC(=O)O[C@H](CCCCCCC)CC(=O)O[C@@H]1[C@@H](NC(=O)/C=C/CCCCCCCCCCC)[C@H](OC[C@H]2O[C@H](OP(=O)(O)O)[C@H](NC(=O)/C=C/CCCCCCCCCCC)[C@@H](OC(=O)C[C@H](O)CCCCCCC)[C@@H]2O)O[C@H](CO)[C@H]1OP(=O)(O)O [Analog B286-32],inhibited TNF production,–,–,–
CCCCCC/C=C\CCCC(=O)O[C@H](CCCCCCC)CCO[C@@H]1[C@@H](NC(=O)CC(=O)CCCCCCCCCCC)[C@H](OC[C@H]2O[C@H](OP(=O)(O)O)[C@H](NC(=O)CC(=O)CCCCCCCCCCC)[C@@H](OCC[C@H](O)CCCCCCC)[C@@H]2O)O[C@H](CO)[C@H]1OP(=O)(O)O [Analog B427-32],–,inhibited LPS-induced TNF production,inhibited LPS-induced TNF production,IC50 (HIV LTR): 15 to 260 nM
CCCCCC/C=C\CCCC(=O)O[C@H](CCCCCCC)CC(=O)O[C@@H]1[C@@H](NC(=O)CC(=O)CCCCCCCCCCC)[C@H](OC[C@H]2O[C@H](OP(=O)(O)O)[C@H](NC(=O)CC(=O)CCCCCCCCCCC)[C@@H](OC(=O)C[C@H](O)CCCCCCC)[C@@H]2O)O[C@H](CO)[C@H]1OP(=O)(O)O [Analog B214-33],inhibited TNF production,–,–,–
CCCCCC/C=C\CCCC(=O)O[C@H](CCCCCCC)CC(=O)O[C@@H]1[C@@H](NC(=O)CC(=O)CCCCCCCCCCC)[C@H](OC[C@H]2O[C@H](OP(=O)(O)O)[C@H](NC(=O)CC(=O)CCCCCCCCCCC)[C@@H](OCC[C@H](O)CCCCCCC)[C@@H]2O)O[C@H](CO)[C@H]1OP(=O)(O)O [Analog B410-32],inhibited TNF production,inhibited LPS-induced TNF production,inhibited LPS-induced TNF production,–
